According to ChEMBL document CHEMBL1147146, “Cells lacking DNA topoisomerase II beta are resistant to genistein” (J Nat Prod, 2007):
Activity calls are given as the source filed them. The calls are words filed in the database; no cut-off is given here.

Legend:
[1] = biological target: T1, DNA topoisomerase 1 (Homo sapiens) (UniProt P11387); settings: K562
T1 sequence (whole entry): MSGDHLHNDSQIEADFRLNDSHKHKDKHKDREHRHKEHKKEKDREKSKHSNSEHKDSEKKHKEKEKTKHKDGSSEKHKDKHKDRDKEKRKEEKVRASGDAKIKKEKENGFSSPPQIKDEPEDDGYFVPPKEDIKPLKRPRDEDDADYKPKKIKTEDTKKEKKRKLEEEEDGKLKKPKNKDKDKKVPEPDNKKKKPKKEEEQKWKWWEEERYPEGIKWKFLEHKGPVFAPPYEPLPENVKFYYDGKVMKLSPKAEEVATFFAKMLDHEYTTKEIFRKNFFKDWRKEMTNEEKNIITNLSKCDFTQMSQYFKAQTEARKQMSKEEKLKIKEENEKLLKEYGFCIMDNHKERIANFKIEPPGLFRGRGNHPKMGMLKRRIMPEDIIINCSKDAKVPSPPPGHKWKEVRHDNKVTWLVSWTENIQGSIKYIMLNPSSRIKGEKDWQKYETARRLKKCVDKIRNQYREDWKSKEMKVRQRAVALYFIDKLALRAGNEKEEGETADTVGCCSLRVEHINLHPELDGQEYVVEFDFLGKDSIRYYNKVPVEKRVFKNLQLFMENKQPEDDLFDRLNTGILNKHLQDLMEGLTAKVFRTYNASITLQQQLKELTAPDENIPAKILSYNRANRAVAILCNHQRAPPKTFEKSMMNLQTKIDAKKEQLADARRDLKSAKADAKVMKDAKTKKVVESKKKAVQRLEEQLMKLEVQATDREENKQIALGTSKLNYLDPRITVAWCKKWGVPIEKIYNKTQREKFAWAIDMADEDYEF
Description: Induction of topoisomerase 1-DNA complexes in K562 cells assessed as integrated green fluorescence at 10 times their IC50 after 24 hrs by TARDIS assay

[2] = biological target: T1, DNA topoisomerase 1 (Homo sapiens); settings: K562; remark: listed apart in the source
Description: Induction of topoisomerase 1-DNA complexes in K562 cells assessed as integrated green fluorescence at 10 times their IC50 after 8 hrs by TARDIS assay

[3] = biological target: T1, DNA topoisomerase 1 (Homo sapiens); settings: K562, 10 uM
Description: Induction of topoisomerase 1-DNA complexes in K562 cells assessed as integrated green fluorescence at 10 uM after 1 hr by TARDIS assay

[4] = biological target: T1, DNA topoisomerase 1 (Homo sapiens); settings: K562; remark: listed apart in the source
Description: Induction of topoisomerase 1-DNA complexes in K562 cells assessed as integrated green fluorescence at 10 times their IC50 after 2 hrs by TARDIS assay

[5] = biological target: T1, DNA topoisomerase 1 (Homo sapiens); test: Inhibition of topoisomerase 1 assessed as reduction of camptothecin-induced topo 1-DNA complexes in K562 cells by measuring integrated fluorescence at 14 uM after 24 hrs by TARDIS assay; assay type: cell-based
[6] = biological target: T1, DNA topoisomerase 1 (Homo sapiens); test: Induction of topoisomerase 1-DNA complexes in K562 cells assessed as integrated green fluorescence at 146 uM after 6 hrs by TARDIS assay; assay type: cell-based
K562 = test: Growth inhibition of K562 cells by XTT assay after 5 days; assay type: functional, cell-based; settings: Homo sapiens, K562, 120 h
[7] = biological target: DNA topoisomerase 2-alpha (Homo sapiens) (UniProt P11388); test: Induction of human recombinant topoisomerase 2-DNA complexes in K562 cells assessed as integrated green fluorescence at 146 uM after 0.5 hrs by TARDIS assay; assay type: cell-based
[8] = biological target: DNA topoisomerase 2-alpha (Homo sapiens) (UniProt P11388); test: Induction of human recombinant topoisomerase 2-DNA complexes in K562 cells assessed as integrated green fluorescence at 146 uM after 2 hrs by TARDIS assay; assay type: cell-based
[9] = biological target: DNA topoisomerase 2-alpha (Homo sapiens) (UniProt P11388); test: Inhibition of human recombinant topoisomerase 2 assessed as reduction of etoposide-induced topo 2-DNA complexes in K562 cells by measuring integrated fluorescence at 14 uM after 24 hrs by TARDIS assay; assay type: cell-based
[10] = biological target: DNA topoisomerase 2-alpha (Homo sapiens) (UniProt P11388); test: Inhibition of human recombinant topoisomerase 2 assessed as reduction of etoposide-induced topo 2-DNA complexes in K562 cells by measuring integrated fluorescence at 146 uM after 24 hrs by TARDIS assay; assay type: cell-based
[11] = biological target: T1, DNA topoisomerase 1 (Homo sapiens); test: Inhibition of topoisomerase 1 assessed as reduction of camptothecin-induced topo 1-DNA complexes in K562 cells by measuring integrated fluorescence at 146 uM after 24 hrs by TARDIS assay; assay type: cell-based
[12] = biological target: DNA topoisomerase 2-alpha (Homo sapiens) (UniProt P11388); test: Induction of human recombinant topoisomerase 2-DNA complexes in K562 cells assessed as integrated green fluorescence at 146 uM after 6 hrs by TARDIS assay; assay type: cell-based
[13] = biological target: T1, DNA topoisomerase 1 (Homo sapiens); test: Induction of topoisomerase 1-DNA complexes in K562 cells assessed as integrated green fluorescence at 146 uM after 0.5 hrs by TARDIS assay; assay type: cell-based
[14] = biological target: T1, DNA topoisomerase 1 (Homo sapiens); test: Induction of topoisomerase 1-DNA complexes in K562 cells assessed as integrated green fluorescence at 146 uM after 2 hrs by TARDIS assay; assay type: cell-based
[15] = biological target: DNA topoisomerase 2-alpha (Homo sapiens) (UniProt P11388); test: Induction of human recombinant topoisomerase 2-DNA complexes in K562 cells assessed as integrated green fluorescence at 146 uM after 24 hrs by TARDIS assay; assay type: cell-based
[16] = biological target: T1, DNA topoisomerase 1 (Homo sapiens); test: Induction of topoisomerase 1-DNA complexes in K562 cells assessed as integrated green fluorescence at 146 uM after 24 hrs by TARDIS assay; assay type: cell-based
[17] = biological target: DNA topoisomerase 2-alpha (Homo sapiens) (UniProt P11388); settings: K562, 10 uM
Description: Induction of human recombinant topoisomerase 2-DNA complexes in K562 cells assessed as integrated green fluorescence at 10 uM after 2 hrs by TARDIS assay

[18] = biological target: DNA topoisomerase 2-alpha (Homo sapiens) (UniProt P11388); settings: K562
Description: Induction of human recombinant topoisomerase 2-DNA complexes in K562 cells assessed as integrated green fluorescence at 10 times their IC50 after 24 hrs by TARDIS assay

[19] = biological target: DNA topoisomerase 2-alpha (Homo sapiens) (UniProt P11388); settings: K562; remark: listed apart in the source
Description: Induction of human recombinant topoisomerase 2-DNA complexes in K562 cells assessed as integrated green fluorescence at 10 times their IC50 after 8 hrs by TARDIS assay

[20] = biological target: DNA topoisomerase 2-alpha (Homo sapiens) (UniProt P11388); settings: K562; remark: listed apart in the source
Description: Induction of human recombinant topoisomerase 2-DNA complexes in K562 cells assessed as integrated green fluorescence at 10 times their IC50 after 2 hrs by TARDIS assay

[21] = biological target: DNA topoisomerase 2-beta (Homo sapiens) (UniProt Q02880); test: Induction of human recombinant topoisomerase 2beta-DNA complex in K562 cells assessed as integrated fluorescence at 10 uM after 2 hrs by TARDIS assay; assay type: cell-based
[22] = biological target: T1, DNA topoisomerase 1 (Homo sapiens); test: Induction of topoisomerase 1-DNA complexes in K562 cells assessed as integrated green fluorescence at 175 uM after 2 hrs by TARDIS assay; assay type: cell-based
[23] = biological target: DNA topoisomerase 2-alpha (Homo sapiens) (UniProt P11388); test: Induction of human recombinant topoisomerase 2-DNA complexes in K562 cells assessed as integrated green fluorescence at 175 uM after 0.5 hrs by TARDIS assay; assay type: cell-based
Mus musculus [24] = organism: Mus musculus; test: Growth inhibition of mouse topoisomerase 2-beta +/+ cells at 100 to 300 uM after 4 hrs by XTT assay; assay type: functional
[25] = Survival of mouse topoisomerase 2-beta -/- cells at 100 uM after 4 hrs by colonogenic assay; assay type: functional
[26] = Growth inhibition of mouse knock out topoisomerase 2-beta -/- cells after 4 hrs by colonogenic assay; assay type: functional
[27] = biological target: DNA topoisomerase 2-alpha (Homo sapiens) (UniProt P11388); test: Induction of human recombinant topoisomerase 2-DNA complexes in K562 cells assessed as integrated green fluorescence at 175 uM after 2 hrs by TARDIS assay; assay type: cell-based
Mus musculus [28] = organism: Mus musculus; test: Growth inhibition of mouse topoisomerase 2-beta -/- cells at 100 to 300 uM after 4 hrs by XTT assay; assay type: functional
[29] = biological target: DNA topoisomerase 2-alpha (Homo sapiens) (UniProt P11388); test: Inhibition of human recombinant topoisomerase 2 assessed as reduction of etoposide-induced topo 2-DNA complexes in K562 cells by measuring integrated fluorescence at 17 uM after 24 hrs by TARDIS assay; assay type: cell-based
[30] = biological target: DNA topoisomerase 2-beta (Homo sapiens) (UniProt Q02880); test: Induction of human recombinant topoisomerase 2beta-DNA complex in K562 cells assessed as integrated fluorescence at 175 uM after 2 hrs by TARDIS assay; assay type: cell-based
[31] = biological target: T1, DNA topoisomerase 1 (Homo sapiens); test: Induction of topoisomerase 1-DNA complexes in K562 cells assessed as integrated green fluorescence at 175 uM after 24 hrs by TARDIS assay; assay type: cell-based
[32] = biological target: DNA topoisomerase 2-alpha (Homo sapiens) (UniProt P11388); test: Induction of human recombinant topoisomerase 2-DNA complexes in K562 cells assessed as integrated green fluorescence at 175 uM after 6 hrs by TARDIS assay; assay type: cell-based
[33] = Survival of mouse wild-type topoisomerase 2beta +/+cells at 100 uM after 4 hrs by colonogenic assay; assay type: functional
[34] = biological target: T1, DNA topoisomerase 1 (Homo sapiens); test: Induction of topoisomerase 1-DNA complexes in K562 cells assessed as integrated green fluorescence at 175 uM after 6 hrs by TARDIS assay; assay type: cell-based
[35] = Growth inhibition of mouse topoisomerase 2-beta -/- cells at 300 uM after 4 hrs by colonogenic assay; assay type: functional; design: scale not given: the % may be the effect or the level left
[36] = biological target: T1, DNA topoisomerase 1 (Homo sapiens); test: Inhibition of topoisomerase 1 assessed as reduction of camptothecin-induced topo 1-DNA complexes in K562 cells by measuring integrated fluorescence at 17 uM after 24 hrs by TARDIS assay; assay type: cell-based
[37] = biological target: DNA topoisomerase 2-alpha (Homo sapiens) (UniProt P11388); test: Induction of human recombinant topoisomerase 2-DNA complexes in K562 cells assessed as integrated green fluorescence at 175 uM after 24 hrs by TARDIS assay; assay type: cell-based
[38] = biological target: T1, DNA topoisomerase 1 (Homo sapiens); test: Induction of topoisomerase 1-DNA complexes in K562 cells assessed as integrated green fluorescence at 175 uM after 0.5 hrs by TARDIS assay; assay type: cell-based
[39] = Growth inhibition of mouse wild-type topoisomerase 2-beta +/+ cells after 4 hrs by colonogenic assay; assay type: functional
[40] = biological target: DNA topoisomerase 2-alpha (Homo sapiens) (UniProt P11388); test: Inhibition of human recombinant topoisomerase 2 assessed as reduction of etoposide-induced topo 2-DNA complexes in K562 cells by measuring integrated fluorescence at 175 uM after 24 hrs by TARDIS assay; assay type: cell-based
[41] = biological target: T1, DNA topoisomerase 1 (Homo sapiens); test: Inhibition of topoisomerase 1 assessed as reduction of camptothecin-induced topo 1-DNA complexes in K562 cells by measuring integrated fluorescence at 175 uM after 24 hrs by TARDIS assay; assay type: cell-based

Chain of DNA topoisomerase 2-alpha (Homo sapiens) (P11388 whole entry): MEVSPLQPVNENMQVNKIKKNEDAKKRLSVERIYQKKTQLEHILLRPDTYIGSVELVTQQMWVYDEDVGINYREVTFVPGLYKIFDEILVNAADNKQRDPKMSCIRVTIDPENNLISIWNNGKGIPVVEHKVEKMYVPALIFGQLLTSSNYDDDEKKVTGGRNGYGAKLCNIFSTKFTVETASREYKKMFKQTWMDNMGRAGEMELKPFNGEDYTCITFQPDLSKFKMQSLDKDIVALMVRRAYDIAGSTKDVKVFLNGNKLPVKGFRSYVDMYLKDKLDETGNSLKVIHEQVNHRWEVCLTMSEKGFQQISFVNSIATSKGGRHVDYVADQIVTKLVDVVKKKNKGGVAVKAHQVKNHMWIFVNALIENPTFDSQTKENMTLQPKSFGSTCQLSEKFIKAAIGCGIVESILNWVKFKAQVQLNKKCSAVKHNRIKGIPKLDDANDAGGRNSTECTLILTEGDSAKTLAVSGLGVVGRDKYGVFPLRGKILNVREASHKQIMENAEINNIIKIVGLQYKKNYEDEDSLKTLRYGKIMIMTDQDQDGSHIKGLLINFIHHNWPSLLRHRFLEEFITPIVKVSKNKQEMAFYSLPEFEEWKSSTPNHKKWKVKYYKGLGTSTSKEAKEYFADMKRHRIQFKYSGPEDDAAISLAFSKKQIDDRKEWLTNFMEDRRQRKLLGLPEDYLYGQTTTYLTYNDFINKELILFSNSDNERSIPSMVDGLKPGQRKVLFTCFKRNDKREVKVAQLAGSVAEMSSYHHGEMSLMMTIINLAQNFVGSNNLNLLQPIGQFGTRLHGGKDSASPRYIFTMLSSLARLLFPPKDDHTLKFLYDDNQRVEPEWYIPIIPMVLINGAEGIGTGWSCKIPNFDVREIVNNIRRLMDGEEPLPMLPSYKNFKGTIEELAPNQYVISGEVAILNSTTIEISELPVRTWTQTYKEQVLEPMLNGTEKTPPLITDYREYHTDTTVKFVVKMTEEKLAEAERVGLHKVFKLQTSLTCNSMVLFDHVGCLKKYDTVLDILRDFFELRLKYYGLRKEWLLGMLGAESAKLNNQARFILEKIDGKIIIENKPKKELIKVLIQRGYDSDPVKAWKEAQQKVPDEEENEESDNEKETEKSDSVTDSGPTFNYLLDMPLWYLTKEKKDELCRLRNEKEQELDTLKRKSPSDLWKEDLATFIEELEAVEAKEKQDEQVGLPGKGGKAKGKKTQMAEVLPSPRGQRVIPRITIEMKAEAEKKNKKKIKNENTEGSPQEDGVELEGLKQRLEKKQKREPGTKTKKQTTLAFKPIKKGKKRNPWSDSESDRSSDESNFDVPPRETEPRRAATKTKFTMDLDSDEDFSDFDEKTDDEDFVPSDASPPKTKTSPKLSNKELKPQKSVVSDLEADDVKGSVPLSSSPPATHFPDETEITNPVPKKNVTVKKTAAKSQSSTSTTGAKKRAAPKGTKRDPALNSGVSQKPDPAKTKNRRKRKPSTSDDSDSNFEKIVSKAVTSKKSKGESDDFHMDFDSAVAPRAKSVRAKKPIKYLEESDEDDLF
Chain of DNA topoisomerase 2-beta (Homo sapiens) (Q02880 whole entry): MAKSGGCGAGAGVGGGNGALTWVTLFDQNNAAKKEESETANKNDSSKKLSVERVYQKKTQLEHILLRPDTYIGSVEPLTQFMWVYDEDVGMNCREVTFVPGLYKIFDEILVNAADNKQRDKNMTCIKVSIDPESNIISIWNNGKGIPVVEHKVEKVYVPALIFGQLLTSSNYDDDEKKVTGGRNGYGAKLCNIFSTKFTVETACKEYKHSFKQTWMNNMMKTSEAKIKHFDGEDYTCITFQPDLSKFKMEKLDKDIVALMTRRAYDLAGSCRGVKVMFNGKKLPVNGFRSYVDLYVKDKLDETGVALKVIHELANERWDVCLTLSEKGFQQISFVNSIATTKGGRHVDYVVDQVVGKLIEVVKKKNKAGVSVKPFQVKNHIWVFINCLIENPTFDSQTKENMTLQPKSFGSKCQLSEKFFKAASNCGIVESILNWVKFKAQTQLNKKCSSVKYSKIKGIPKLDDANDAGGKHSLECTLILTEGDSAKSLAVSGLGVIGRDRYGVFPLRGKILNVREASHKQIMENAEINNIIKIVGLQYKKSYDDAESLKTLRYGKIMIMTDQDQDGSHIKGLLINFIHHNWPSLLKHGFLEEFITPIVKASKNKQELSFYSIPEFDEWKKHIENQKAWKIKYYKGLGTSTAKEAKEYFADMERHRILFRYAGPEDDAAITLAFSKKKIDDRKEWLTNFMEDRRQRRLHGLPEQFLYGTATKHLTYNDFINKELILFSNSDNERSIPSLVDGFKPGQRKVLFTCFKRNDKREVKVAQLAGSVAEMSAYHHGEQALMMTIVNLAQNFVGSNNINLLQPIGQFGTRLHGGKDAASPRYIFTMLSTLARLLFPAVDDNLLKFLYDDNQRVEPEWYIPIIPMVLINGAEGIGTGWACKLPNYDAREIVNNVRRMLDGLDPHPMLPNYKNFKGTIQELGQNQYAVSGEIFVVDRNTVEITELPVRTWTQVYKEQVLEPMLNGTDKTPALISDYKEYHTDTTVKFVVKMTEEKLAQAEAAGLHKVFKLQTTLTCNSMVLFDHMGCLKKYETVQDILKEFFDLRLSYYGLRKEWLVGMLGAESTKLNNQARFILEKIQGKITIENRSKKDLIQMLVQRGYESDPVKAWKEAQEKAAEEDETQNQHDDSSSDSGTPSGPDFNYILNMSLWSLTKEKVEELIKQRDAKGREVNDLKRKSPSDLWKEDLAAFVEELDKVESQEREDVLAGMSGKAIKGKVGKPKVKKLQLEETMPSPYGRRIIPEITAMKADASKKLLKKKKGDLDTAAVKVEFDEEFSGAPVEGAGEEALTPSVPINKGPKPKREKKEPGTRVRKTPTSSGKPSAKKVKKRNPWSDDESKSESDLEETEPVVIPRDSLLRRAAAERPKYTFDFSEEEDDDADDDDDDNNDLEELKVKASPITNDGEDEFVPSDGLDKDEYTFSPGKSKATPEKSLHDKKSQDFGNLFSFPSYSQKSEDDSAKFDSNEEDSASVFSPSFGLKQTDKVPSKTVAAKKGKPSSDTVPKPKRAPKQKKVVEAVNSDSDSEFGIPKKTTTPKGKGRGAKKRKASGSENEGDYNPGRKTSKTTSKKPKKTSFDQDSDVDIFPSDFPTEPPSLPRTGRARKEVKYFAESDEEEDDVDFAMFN

**Q.** For `CC[C@@]1(O)C(=O)OCc2c1cc1n(c2=O)Cc2cc3ccccc3nc2-1`, which Fluorescence intensity [1] is on record?
**A.** 1.04

**Q.** What about the Fluorescence intensity [2] of the same compound?
**A.** 1.58

**Q.** What about the Fluorescence intensity [3] of the same compound?
**A.** 11.4

**Q.** And the Fluorescence intensity [4]?
**A.** 2.51

**Q.** With `O=c1cc(-c2ccc(O)c(O)c2)oc2cc(O)cc(O)c12` [LUTEOLIN] as the compound, how does the Fluorescence intensity [5] read?
**A.** 99%

**Q.** And the Fluorescence intensity [6]?
**A.** 0.51

**Q.** And the IC50 (K562)?
**A.** 14.7 µM

**Q.** And the Fluorescence intensity [7]?
**A.** 3.17

**Q.** And the Activity [8]?
**A.** 4.08

**Q.** And the Fluorescence intensity [9]?
**A.** 133%

**Q.** And the Fluorescence intensity [10]?
**A.** 85%

**Q.** What about the Fluorescence intensity [11] of the same compound?
**A.** 52%

**Q.** And the Fluorescence intensity [12]?
**A.** 7.39

**Q.** What about the Fluorescence intensity [13] of the same compound?
**A.** 0.49

**Q.** What about the Activity [14] of the same compound?
**A.** 0.28

**Q.** What about the Fluorescence intensity [15] of the same compound?
**A.** 5.05

**Q.** And the Fluorescence intensity [16]?
**A.** 0.19

**Q.** With `COc1cc([C@@H]2c3cc4c(cc3[C@@H](O[C@@H]3O[C@@H]5CO[C@@H](C)O[C@H]5[C@H](O)[C@H]3O)[C@H]3COC(=O)[C@H]23)OCO4)cc(OC)c1O` as the compound, how does the Fluorescence intensity [17] read?
**A.** 49.4

**Q.** And the Fluorescence intensity [18]?
**A.** 23.4

**Q.** And the Fluorescence intensity [19]?
**A.** 20.9

**Q.** What about the Fluorescence intensity [20] of the same compound?
**A.** 13.2

**Q.** What about the Fluorescence intensity [21] of the same compound?
**A.** 3940

**Q.** Which results are given for `O=c1c(-c2ccc(O)cc2)coc2cc(O)cc(O)c12` [GENISTEIN]?
**A.** Fluorescence intensity [22]: 0.44; Fluorescence intensity [23]: 7.03; Activity (Mus musculus [24]): Active; Activity [25]: 50%; IC50 [26]: 300 µM; Fluorescence intensity [27]: 20.4; Activity (Mus musculus [28]): inactive; Fluorescence intensity [29]: 95%; Fluorescence intensity [30]: 12700; Fluorescence intensity [31]: 0.18; IC50 (K562): 17.6 µM; Fluorescence intensity [32]: 7.03; Activity [33]: 0%; Fluorescence intensity [34]: 0.44; Activity [35]: 50%; Fluorescence intensity [36]: 112%; Fluorescence intensity [37]: 12.6; Fluorescence intensity [38]: 0.96; IC50 [39]: 47 µM; Fluorescence intensity [40]: 67%; Fluorescence intensity [41]: 148%
